Data on 25 molecules can be found in patent US20240425479A1, “HALO-SUBSTITUTED AMINO AZA-HETEROARYL COMPOUNDS AS INHIBITORS OF THE HAEMATOPOIETIC PROGENITOR KINASE 1 (HPK1)” (priority 2021, published 2024).

Structures can show the parent of a compound that is named as a salt.

In assay [1] the target is T1, Recombinant (1-346) HPK1 (h) (Homo sapiens, UniProt Q92918).
T1 construct: Recombinant (1-346) HPK1 (h) is incubated with 8 mM MOPS pH 7.0
T1 sequence (Q92918 1-346): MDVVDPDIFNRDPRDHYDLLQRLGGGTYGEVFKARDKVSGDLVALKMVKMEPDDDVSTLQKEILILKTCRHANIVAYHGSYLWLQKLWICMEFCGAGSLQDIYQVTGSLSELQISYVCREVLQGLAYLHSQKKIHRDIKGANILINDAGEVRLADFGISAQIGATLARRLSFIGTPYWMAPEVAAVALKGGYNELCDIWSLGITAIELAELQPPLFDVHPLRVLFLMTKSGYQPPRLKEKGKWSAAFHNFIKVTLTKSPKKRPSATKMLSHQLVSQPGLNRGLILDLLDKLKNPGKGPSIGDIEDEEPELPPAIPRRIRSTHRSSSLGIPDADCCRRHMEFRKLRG
Kind of assay: HPK1 human STE kinase enzymatic radiometric assay. The assay is classed as biochemical. The note with it: read-out: HPK1 IC50 nM Range. In a few lines: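 Recombinant HPK1 (1-346) incubated 40 min at RT with 0.33 mg/mL myelin basic protein and [gamma-33P]-ATP in 8 mM MOPS pH 7.0, 0.2 mM EDTA, 10 mM Mg acetate; reaction started with Mg/ATP. Stopped with 0.5% phosphoric acid, spotted on P30 filtermat, washed, scintillation counted. Compounds tested as 9-point 3-fold dilutions.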

The next assay addresses Lck (h) (Homo sapiens, UniProt P06239). Kind of assay: Lck human STE kinase enzymatic radiometric assay. The assay is classed as biochemical. The note with it: for IC50: read-out: Lck IC50 nM Range. How it is done:
(b) Lck Human STE Kinase Enzymatic Radiometric Assay
Lck (h) is incubated with 50 mM Tris pH 7.5, 0.1 mM EGTA, 0.1 mM Na3VO4, 250 uM KVEKIGEGTYGVVYK (Cdc2 peptide), 10 mM MgAcetate and [gamma-33P]-ATP (specific activity and concentration as required). The reaction is initiated by the addition of the Mg/ATP mix. After incubation for 40 minutes at room temperature, the reaction is stopped by the addition of phosphoric acid to a concentration of 0.5%, 10 μL of the reaction is then spotted onto a P30 filtermat and washed four times for 4 minutes in 0.425% phosphoric acid and once in methanol prior to drying and scintillation counting. For more details on the kinase assay procedures see: Gao, Y. et. al.; Biochem J., 451 (2): 313-328, 2013.

Lck (h), sequence (P06239 whole entry): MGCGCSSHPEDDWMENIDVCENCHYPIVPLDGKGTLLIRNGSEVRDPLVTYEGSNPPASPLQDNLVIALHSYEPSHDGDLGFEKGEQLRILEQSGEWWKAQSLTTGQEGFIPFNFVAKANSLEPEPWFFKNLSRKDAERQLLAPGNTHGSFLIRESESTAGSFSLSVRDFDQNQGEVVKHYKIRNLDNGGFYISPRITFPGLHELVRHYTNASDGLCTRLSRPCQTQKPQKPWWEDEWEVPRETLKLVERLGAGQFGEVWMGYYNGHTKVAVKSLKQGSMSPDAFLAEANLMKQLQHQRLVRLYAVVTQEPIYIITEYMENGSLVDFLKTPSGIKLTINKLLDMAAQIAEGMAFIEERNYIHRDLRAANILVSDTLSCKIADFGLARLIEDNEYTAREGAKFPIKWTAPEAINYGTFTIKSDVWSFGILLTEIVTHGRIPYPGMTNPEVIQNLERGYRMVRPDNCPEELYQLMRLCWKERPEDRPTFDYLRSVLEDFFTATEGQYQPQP

In the case of `CC(C)N1CCN(c2ccc(-c3nc(-c4cc5c(cc4F)C(=O)NCC5)c(N)nc3Cl)cc2)CC1` [Example I-8, 6-(3-amino-5-chloro-6-(4-(4-isopropylpiperazin-1-yl)phenyl)pyrazin-2-yl)-7-fluoro-3,4-dihydroisoquinolin-1(2H)-one], the IC50 is 11 to 100 nM in assay [1] and above 1000 nM on Lck (h).

Turning to `Nc1nc(F)c(-c2ccc(N3CCN(C4CCC4)CC3)cc2)nc1-c1cc2c(cc1F)C(=O)NCC2` [Example I-48, 6-(3-amino-6-(4-(4-cyclobutylpiperazin-1-yl)phenyl)-5-fluoropyrazin-2-yl)-7-fluoro-3,4-dihydroisoquinolin-1(2H)-one], the IC50 was 0.1 to 10 nM in assay [1] and above 1000 nM on Lck (h).

Regarding `C[C@@H]1CN(c2ccc(-c3nc(-c4cc5c(cc4F)C(=O)NCC5)c(N)nc3F)cc2CN(C)C)CCO1` [Example I-173, (R)-6-(3-amino-6-(3-((dimethylamino)methyl)-4-(2-methylmorpholino)phenyl)-5-fluoropyrazin-2-yl)-7-fluoro-3,4-dihydroisoquinolin-1(2H)-one], the half-maximal inhibitory concentration (IC50) in assay [1] was 0.1 to 10 nM; on Lck (h), 101 to 1000 nM. `Nc1nc(F)c(-c2ccc(C3CCN(CC4CC4)CC3)cc2)nc1-c1cc(F)c2c(c1)CCNC2=O` [Example I-13, 6-(3-amino-6-(4-(1-(cyclopropylmethyl)piperidin-4-yl)phenyl)-5-fluoropyrazin-2-yl)-8-fluoro-3,4-dihydroisoquinolin-1(2H)-one Formate]: the concentration for half-maximal inhibition (IC50) in assay [1] was 0.1 to 10 nM; at Lck (h), above 1000 nM. On to `Nc1nc(F)c(-c2ccc(C3CCOCC3)c(CN3CCC3)c2)nc1-c1cc2c(cc1F)C(=O)NCC2` [Example I-170, 6-(3-amino-6-(3-(azetidin-1-ylmethyl)-4-(tetrahydro-2H-pyran-4-yl)phenyl)-5-fluoropyrazin-2-yl)-7-fluoro-3,4-dihydroisoquinolin-1(2H)-one], for which the figures for the IC50 (in assay [1]; on Lck (h)) were 0.1 to 10 nM and above 1000 nM, respectively. For the molecule `CC(C)N1CCN(c2ccc(-c3nc(-c4ccc5c(c4)C4(CC4)CNC5=O)c(N)nc3F)cc2)CC1` [Example I-103, 6′-(3-amino-5-fluoro-6-(4-(4-isopropylpiperazin-1-yl)phenyl)pyrazin-2-yl)-2′,3′-dihydro-1′H-spiro[cyclopropane-1,4′-isoquinolin]-1′-one], the IC50 was in the range of 0.1 to 10 nM in assay [1] and 101 to 1000 nM at Lck (h). For the molecule `Nc1nc(F)c(-c2ccc(N3CCOCC3)cc2)nc1-c1ccc2c(c1)CCNC2=O` [drawing 1319], the “LcK IC50/HPK IC50 selectivity” value on Lck (h) (ratio Lck IC50 / HPK1 IC50) was above 1666.

On to `C[C@@H]1CCCN1Cc1cc(-c2nc(-c3ccc4c(=O)[nH]cc(Cl)c4c3)c(N)nc2F)ccc1C1CCOCC1` [Example I-227, (R)-6-(3-amino-5-fluoro-6-(3-((2-methylpyrrolidin-1-yl)methyl)-4-(tetrahydro-2H-pyran-4-yl)phenyl)pyrazin-2-yl)-4-chloroisoquinolin-1(2H)-one], for which the IC50 in assay [1] is 11 to 100 nM. On the same count and under the same terms, next, `Nc1nc(F)c(-c2ccc(N3CCOCC3)c(CN3CCCCC3)c2)nc1-c1cc2c(cc1F)C(=O)NCC2` [Example I-186, 6-(3-amino-5-fluoro-6-(4-morpholino-3-(piperidin-1-ylmethyl)phenyl)pyrazin-2-yl)-7-fluoro-3,4-dihydroisoquinolin-1(2H)-one]: 11 to 100 nM; `Cc1[nH]c(=O)c2ccc(-c3nc(-c4ccc(C5CCOCC5)c(CN(C)C)c4)c(F)nc3N)cc2c1Cl` [Example I-125, 6-(3-amino-6-(3-((dimethylamino)methyl)-4-(tetrahydro-2H-pyran-4-yl)phenyl)-5-fluoropyrazin-2-yl)-4-chloro-3-methylisoquinolin-1(2H)-one]: 0.1 to 10 nM; `C[C@@H]1CN(c2ccc(-c3nc(-c4ccc5c(=O)[nH]cc(F)c5c4)c(N)nc3F)cc2)C[C@H](C)N1C` [Example I-93, 6-(3-amino-5-fluoro-6-(4-((3R,5S)-3,4,5-trimethylpiperazin-1-yl)phenyl)pyrazin-2-yl)-4-fluoroisoquinolin-1(2H)-one]: 0.1 to 10 nM. As for `C[C@H]1CCCN1Cc1cc(-c2nc(-c3ccc4c(c3)C(F)(F)CNC4=O)c(N)nc2F)ccc1C1CCOCC1` [Example I-233, (S)-6-(3-amino-5-fluoro-6-(3-((2-methylpyrrolidin-1-yl)methyl)-4-(tetrahydro-2H-pyran-4-yl)phenyl)pyrazin-2-yl)-4,4-difluoro-3,4-dihydroisoquinolin-1(2H)-one], the IC50 in assay [1] fell in the range of 0.1 to 10 nM.

In the case of `CN(C)Cc1cc(-c2nc(-c3cc(F)c4c(c3)CCNC4=O)c(N)nc2F)ccc1N1CCOCC1` [Example I-88, 6-(3-amino-6-(3-((dimethylamino)methyl)-4-morpholinophenyl)-5-fluoropyrazin-2-yl)-8-fluoro-3,4-dihydroisoquinolin-1(2H)-one], in assay [1], the IC50 lay in the range of 11 to 100 nM. Still for that read-out and setting: next, `COc1c[nH]c(=O)c2ccc(-c3nc(-c4ccc(N5CCN(C(C)C)CC5)cc4)c(F)nc3N)cc12` [Example I-119, 6-(3-amino-5-fluoro-6-(4-(4-isopropylpiperazin-1-yl)phenyl)pyrazin-2-yl)-4-methoxyisoquinolin-1(2H)-one]: 11 to 100 nM. The same measure, in the same setting: next, `Cc1c[nH]c(=O)c2ccc(-c3nc(-c4cccc(CN(C)C)c4)c(F)nc3N)cc12` [Example I-280, 6-(3-amino-6-(3-((dimethylamino)methyl)phenyl)-5-fluoropyrazin-2-yl)-4-methylisoquinolin-1(2H)-one]: 11 to 100 nM.

Turning to `CC(c1cc(-c2nc(-c3ccc4c(=O)[nH]cc(F)c4c3)c(N)nc2F)ccc1O)N(C)C` (stereo not shown) [Example I-302, 6-(3-amino-6-(3-(1-(dimethylamino)ethyl)-4-hydroxyphenyl)-5-fluoropyrazin-2-yl)-4-fluoroisoquinolin-1(2H)-one], the half-inhibitory concentration (IC50) in assay [1] fell in the range of 0.1 to 10 nM. Same read-out and setting: next, `CCN(C)Cc1cc(-c2nc(-c3ccc4c(=O)[nH]cc(F)c4c3)c(N)nc2F)ccc1C1=CCOCC1` [Example I-282, 6-(3-amino-6-(4-(3,6-dihydro-2H-pyran-4-yl)-3-((ethyl(methyl)amino)methyl)phenyl)-5-fluoropyrazin-2-yl)-4-fluoroisoquinolin-1(2H)-one]: 11 to 100 nM. For `Cc1[nH]c(=O)c2ccc(-c3nc(-c4ccc(N5CCN(C(C)C)CC5)cc4)c(F)nc3N)cc2c1Cl` [Example I-43, 6-(3-amino-5-fluoro-6-(4-(4-isopropylpiperazin-1-yl)phenyl)pyrazin-2-yl)-4-chloro-3-methylisoquinolin-1(2H)-one], the 50% inhibitory concentration (IC50) in assay [1] was in the range of 0.1 to 10 nM. The same measure, in the same setting: next, `CN(C)Cc1cc(-c2nc(-c3ccc4c(c3)CCNC4=O)c(N)nc2F)c(F)cc1N1CCOCC1` [Example I-258, 6-(3-amino-6-(5-((dimethylamino)methyl)-2-fluoro-4-morpholinophenyl)-5-fluoropyrazin-2-yl)-3,4-dihydroisoquinolin-1(2H)-one]: 101 to 1000 nM; `CN(C)Cc1cc(-c2nc(-c3ccc4c(=O)[nH]cc(F)c4c3)c(N)nc2F)ccc1F` [Example I-276, 6-(3-amino-6-(3-((dimethylamino)methyl)-4-fluorophenyl)-5-fluoropyrazin-2-yl)-4-fluoroisoquinolin-1(2H)-one]: 11 to 100 nM. On the same count and under the same terms, next, `CN1CCN(c2ccc(-c3nc(-c4cc5c(cc4F)C(=O)NCC5)c(N)nc3F)cc2)CC1` [Example I-54, 6-(3-amino-5-fluoro-6-(4-(4-methylpiperazin-1-yl)phenyl)pyrazin-2-yl)-7-fluoro-3,4-dihydroisoquinolin-1(2H)-one]: 0.1 to 10 nM; `Nc1nc(F)c(-c2ccc(N3CCN(CCCC(F)F)CC3)cc2)nc1-c1ccc2c(=O)[nH]cc(F)c2c1` [Example I-136, 6-(3-amino-6-(4-(4-(4,4-difluorobutyl)piperazin-1-yl)phenyl)-5-fluoropyrazin-2-yl)-4-fluoroisoquinolin-1(2H)-one]: 0.1 to 10 nM; `Cc1nc2cc(-c3nc(-c4ccc(N5CCN(CCCC(F)F)CC5)cc4)c(F)nc3N)ccc2c(=O)[nH]1` [Example I-81, 7-(3-amino-6-(4-(4-(4,4-difluorobutyl)piperazin-1-yl)phenyl)-5-fluoropyrazin-2-yl)-2-methylquinazolin-4(3H)-one]: 11 to 100 nM. `CCN(C)Cc1cc(-c2nc(-c3ccc4c(=O)[nH]cc(F)c4c3)c(N)nc2F)cc(C)c1OC` [Example I-298, 6-(3-amino-6-(3-((ethyl(methyl)amino)methyl)-4-methoxy-5-methylphenyl)-5-fluoropyrazin-2-yl)-4-fluoroisoquinolin-1(2H)-one]: the half-inhibitory concentration (IC50) in assay [1] was in the range of 11 to 100 nM.

Take `CN(C)Cc1cc(-c2nc(-c3ccc4c(c3)CCNC4=O)c(N)nc2F)ccc1F` [Example I-272, 6-(3-amino-6-(3-((dimethylamino)methyl)-4-fluorophenyl)-5-fluoropyrazin-2-yl)-3,4-dihydroisoquinolin-1(2H)-one]: in assay [1], the IC50 lay within 11 to 100 nM.

The IC50 is the concentration needed to halve the response being measured.
